Assay results as given in patent US11124541B2, “Chimeric melanocortin ligands and methods of use thereof” (REGENTS OF THE UNIVERSITY OF MINNESOTA, priority 2016, dated 2021).
Entries after “also recorded” stand apart in the source; their conditions may differ. Non-standard residues stand in square brackets, D forms with d. Residues, ends and D or L forms follow the SMILES beside them. Dap = NC[C@H](N)C(=O)O

Tests used:
[1] = biological target: mMC1R (Mus musculus, UniProt Q01727); assay: cAMP AlphaScreen agonist assay, HEK293 cells stably expressing mouse MC1R; details: for EC50: read-out: mMC1R EC50, agonist, cAMP; for agonist activity/efficacy at mMC1R (in words): concentrations up to 100 μM
[2] = biological target: mMC4R (Mus musculus, UniProt P56450); assay: cAMP AlphaScreen agonist assay, HEK293 cells stably expressing mouse MC4R; details: for agonist activity/efficacy at mMC4R (in words): concentrations up to 100 μM; for mMC4R percent maximal stimulatory response at 100 μM: no EC50 determinable, relative to NDP-MSH; for EC50: read-out: mMC4R EC50, agonist, cAMP; for selectivity for the mMC4R over the mMC3R: agonist potency
[3] = biological target: mMC5R (Mus musculus, UniProt P41149); assay: cAMP AlphaScreen agonist assay, HEK293 cells stably expressing mouse MC5R; details: for EC50: read-out: mMC5R EC50, agonist, cAMP; for agonist activity/efficacy at mMC5R (in words): concentrations up to 100 μM
[4] = biological target: mMC3R (Mus musculus, UniProt P33033); assay: cAMP AlphaScreen agonist assay, HEK293 cells stably expressing mouse MC3R; details: for mMC3R percent maximal stimulatory response at 100 μM: no EC50 determinable, relative to NDP-MSH; for agonist activity/efficacy at mMC3R (in words): concentrations up to 100 μM; for EC50: read-out: mMC3R EC50, agonist, cAMP
Chain of mMC3R (P33033 whole entry): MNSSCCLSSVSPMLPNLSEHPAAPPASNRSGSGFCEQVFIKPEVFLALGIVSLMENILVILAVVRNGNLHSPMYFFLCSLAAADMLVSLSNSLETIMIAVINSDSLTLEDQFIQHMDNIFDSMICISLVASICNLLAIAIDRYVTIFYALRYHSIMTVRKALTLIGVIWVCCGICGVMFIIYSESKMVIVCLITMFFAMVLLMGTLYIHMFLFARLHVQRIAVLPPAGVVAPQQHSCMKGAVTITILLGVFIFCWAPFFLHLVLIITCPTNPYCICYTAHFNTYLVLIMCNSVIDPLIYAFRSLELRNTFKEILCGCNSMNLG

Chain of mMC4R (P56450 whole entry): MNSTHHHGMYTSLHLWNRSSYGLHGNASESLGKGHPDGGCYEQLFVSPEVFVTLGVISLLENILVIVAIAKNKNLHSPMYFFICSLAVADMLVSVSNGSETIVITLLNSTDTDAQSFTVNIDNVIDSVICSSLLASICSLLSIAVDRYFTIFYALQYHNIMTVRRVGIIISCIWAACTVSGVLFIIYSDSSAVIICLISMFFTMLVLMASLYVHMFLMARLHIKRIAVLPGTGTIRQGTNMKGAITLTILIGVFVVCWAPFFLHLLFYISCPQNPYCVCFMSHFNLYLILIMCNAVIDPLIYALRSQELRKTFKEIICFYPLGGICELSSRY
Chain of mMC5R (P41149 whole entry): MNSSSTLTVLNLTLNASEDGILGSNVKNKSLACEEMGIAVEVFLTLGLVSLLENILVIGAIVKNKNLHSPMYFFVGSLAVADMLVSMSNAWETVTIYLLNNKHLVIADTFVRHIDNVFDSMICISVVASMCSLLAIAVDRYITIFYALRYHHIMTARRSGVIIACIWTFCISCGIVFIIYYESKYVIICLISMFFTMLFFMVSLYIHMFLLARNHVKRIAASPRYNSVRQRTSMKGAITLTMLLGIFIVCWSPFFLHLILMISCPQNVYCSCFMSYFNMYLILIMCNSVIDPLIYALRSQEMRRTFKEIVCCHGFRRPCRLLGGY
Chain of mMC1R (Q01727 whole entry): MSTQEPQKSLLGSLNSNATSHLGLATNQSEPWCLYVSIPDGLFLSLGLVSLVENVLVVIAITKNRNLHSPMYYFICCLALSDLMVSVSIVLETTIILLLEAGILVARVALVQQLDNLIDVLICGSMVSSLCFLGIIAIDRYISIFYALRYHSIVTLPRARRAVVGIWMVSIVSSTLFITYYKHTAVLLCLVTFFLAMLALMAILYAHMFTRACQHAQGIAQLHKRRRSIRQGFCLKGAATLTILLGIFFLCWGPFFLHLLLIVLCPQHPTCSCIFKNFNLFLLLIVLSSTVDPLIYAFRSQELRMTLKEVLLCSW

N=C(N)NCCC[C@@H]1NC(=O)[C@@H](Cc2ccccc2)NC(=O)[C@@H]2CCCN2C(=O)[C@H]2CCCN2C(=O)[C@H](Cc2c[nH]c3ccccc23)NC1=O [MDE5-147-1c, c[Pro-DPhe-Arg-Trp-DPro]] (cyclo(P[dF]RW[dP]))
EC50 [1]: 1800 nM | agonist activity/efficacy at mMC4R (in words) [2]: stimulated a fraction of the maximal NDP-MSH response | mMC5R percent maximal stimulatory response at 100 μM ([3]; 100 μM, no EC50 determinable, relative to NDP-MSH): 75% @

N=C(N)NCCC[C@@H]1NC(=O)[C@@H](Cc2ccccc2)NC(=O)[C@H](Cc2c[nH]cn2)NC(=O)[C@@H]2CCCN2C(=O)[C@H]2CCCN2C(=O)[C@H](Cc2c[nH]c3ccccc23)NC1=O [MDE5-147-2c, c[Pro-His-DPhe-Arg-Trp-DPro]] (cyclo(PH[dF]RW[dP]))
EC50 [1]: 900 ± 200 nM | mMC3R percent maximal stimulatory response at 100 μM [4]: 60% @ | mMC3R percent maximal stimulatory response at 100 μM ([4]; listed as MDES-147-2c): 60% | agonist activity/efficacy at mMC3R (in words) [4]: partially stimulated | mMC4R percent maximal stimulatory response at 100 μM [2]: 65% @ | mMC4R percent maximal stimulatory response at 100 μM ([2]; listed as MDES-147-2c): 65% | agonist activity/efficacy at mMC4R (in words) [2]: stimulated a fraction of the maximal NDP-MSH response | EC50 [3]: 6000 nM

C[C@@H]1NC(=O)[C@H](CC(N)=O)NC(=O)[C@H](Cc2c[nH]c3ccccc23)NC(=O)[C@H](CCCNC(=N)N)NC(=O)[C@@H](Cc2ccccc2)NC(=O)[C@@H]2CCCN2C(=O)[C@H]2CCCN2C(=O)[C@H](Cc2ccccc2)NC1=O [MDE5-149-1c, c[Pro-DPhe-Arg-Trp-Asn-Ala-Phe-DPro]] (cyclo(P[dF]RWNAF[dP]))
EC50 [1]: 400 ± 200 nM | decreased agonist potency at mMC1R relative to MDE5-149-2c [1]: 1140 fold | agonist activity/efficacy at mMC3R (in words) [4]: partially stimulated | EC50 [2]: 130 ± 70 nM | decreased agonist potency at mMC4R relative to MDE5-149-2c [2]: 90 fold | EC50 [3]: 40 ± 10 nM | decreased agonist potency at mMC5R relative to MDE5-149-2c [3]: 90 fold

C[C@@H]1NC(=O)[C@H](CC(N)=O)NC(=O)[C@H](Cc2c[nH]c3ccccc23)NC(=O)[C@H](CCCNC(=N)N)NC(=O)[C@@H](Cc2ccccc2)NC(=O)[C@H](Cc2cnc[nH]2)NC(=O)[C@@H]2CCCN2C(=O)[C@H]2CCCN2C(=O)[C@H](Cc2ccccc2)NC1=O [MDE5-149-2c, c[Pro-His-DPhe-Arg-Trp-Asn-Ala-Phe-DPro]] (cyclo(H[dF]RWNAF[dP]P))
EC50 [1]: 0.35 nM | EC50 [4]: 32 nM | selectivity for the mMC4R over the mMC3R [2]: 23 fold | EC50 [2]: 1.4 nM | EC50 [3]: 0.45 nM

C[C@@H]1NC(=O)[C@H](CN)NC(=O)[C@H](Cc2c[nH]c3ccccc23)NC(=O)[C@H](CCCNC(=N)N)NC(=O)[C@@H](Cc2ccccc2)NC(=O)[C@@H]2CCCN2C(=O)[C@H]2CCCN2C(=O)[C@H](Cc2ccccc2)NC1=O [MDE5-151-1c, c[Pro-DPhe-Arg-Trp-Dap-Ala-Phe-DPro]] (cyclo(P[dF]RW[Dap]AF[dP]))
agonist activity/efficacy at mMC1R (in words) [1]: partial agonist | EC50 [1]: 190 nM | agonist activity/efficacy at mMC3R (in words) [4]: partial agonist | EC50 [4]: 3000 nM | agonist activity/efficacy at mMC4R (in words) [2]: full agonist | EC50 [2]: 100 nM | EC50 [3]: 46 ± 6 nM

C[C@@H]1NC(=O)[C@H](CN)NC(=O)[C@H](Cc2c[nH]c3ccccc23)NC(=O)[C@H](CCCNC(=N)N)NC(=O)[C@@H](Cc2ccccc2)NC(=O)[C@H](Cc2c[nH]cn2)NC(=O)[C@@H]2CCCN2C(=O)[C@H]2CCCN2C(=O)[C@H](Cc2ccccc2)NC1=O [MDE5-151-2c, c[Pro-His-DPhe-Arg-Trp-Dap-Ala-Phe-DPro]] (cyclo(PH[dF]RW[Dap]AF[dP]))
agonist activity/efficacy at mMC1R (in words) [1]: full agonist | EC50 [1]: 24 nM | decreased agonist potency at mMC1R relative to MDE5-149-2c [1]: 70 fold | agonist activity/efficacy at mMC3R (in words) [4]: full agonist | EC50 [4]: 260 nM | agonist activity/efficacy at mMC4R (in words) [2]: partial agonist | EC50 [2]: 23 nM | EC50 [3]: 18 ± 2 nM

C[C@@H]1NC(=O)[C@H](CC(N)=O)NC(=O)[C@H](Cc2c[nH]c3ccccc23)NC(=O)[C@H](CCCNC(=N)N)NC(=O)[C@@H](Cc2ccccc2)NC(=O)[C@@H]2CCCN2C(=O)[C@H]2CCCN2C1=O [MDE6-3-1c, c[Pro-DPhe-Arg-Trp-Asn-Ala-DPro]] (cyclo(P[dF]RWNA[dP]))
mMC3R percent maximal stimulatory response at 100 μM [4]: 55% @ | agonist activity/efficacy at mMC3R (in words) [4]: partially stimulated | selectivity for the mMC4R over the mMC3R [2]: > 100 fold

C[C@@H]1NC(=O)[C@H](CC(N)=O)NC(=O)[C@H](Cc2c[nH]c3ccccc23)NC(=O)[C@H](CCCNC(=N)N)NC(=O)[C@@H](Cc2ccccc2)NC(=O)[C@H](Cc2c[nH]cn2)NC(=O)[C@@H]2CCCN2C(=O)[C@H]2CCCN2C1=O [MDE6-3-2c, c[Pro-His-DPhe-Arg-Trp-Asn-Ala-DPro]] (cyclo(PH[dF]RWNA[dP]))
decreased agonist potency at mMC1R relative to MDE5-149-2c [1]: 34 fold | EC50 [4]: 300 nM | decreased agonist potency at mMC3R relative to MDE5-149-2c ([4]; relative to MDE5-149-2c): 9 fold | decreased agonist potency at mMC4R relative to MDE5-149-2c [2]: 21 fold | decreased agonist potency at mMC5R relative to MDE5-149-2c [3]: 5 fold

C[C@@H]1NC(=O)[C@H](CN)NC(=O)[C@H](Cc2c[nH]c3ccccc23)NC(=O)[C@H](CCCNC(=N)N)NC(=O)[C@@H](Cc2ccccc2)NC(=O)[C@@H]2CCCN2C(=O)[C@H]2CCCN2C1=O [MDE6-5-1c, c[Pro-DPhe-Arg-Trp-Dap-Ala-DPro]] (cyclo(P[dF]RW[Dap]A[dP]))
agonist activity/efficacy at mMC1R (in words) [1]: full agonist | EC50 [1]: 600 nM | agonist activity/efficacy at mMC3R (in words) [4]: partially stimulated | EC50 [2]: 150 ± 10 nM | EC50 [3]: 48 nM

N=C(N)NCCC[C@@H]1NC(=O)[C@@H](Cc2ccccc2)NC(=O)[C@@H]2CCCN2C(=O)[C@H]2CCCN2C(=O)[C@H](CC(N)=O)NC(=O)[C@H](Cc2c[nH]c3ccccc23)NC1=O [MDE6-10-1c, c[Pro-DPhe-Arg-Trp-Asn-DPro]] (cyclo(P[dF]RWN[dP]))
selectivity for the mMC1R over the mMC3R ([1]; agonist potency): > 2500 fold | selectivity for the mMC1R over the mMC5R ([1]; agonist potency): > 1000 fold | increased agonist potency at mMC1R over MDE5-149-1c ([1]; increase over MDE5-149-1c): 10 fold | EC50 [1]: 40 nM | agonist activity/efficacy at mMC3R (in words) [4]: no agonist activity; also recorded: did not possess agonist activity | decreased potency at mMC4R relative to MDE5-149-1c ([2]; decrease relative to MDE5-149-1c): 8 fold | EC50 [2]: 1100 nM | agonist activity/efficacy at mMC5R (in words) [3]: partially stimulated

N=C(N)NCCC[C@@H]1NC(=O)[C@@H](Cc2ccccc2)NC(=O)[C@H](Cc2c[nH]cn2)NC(=O)[C@@H]2CCCN2C(=O)[C@H]2CCCN2C(=O)[C@H](CC(N)=O)NC(=O)[C@H](Cc2c[nH]c3ccccc23)NC1=O [MDE6-10-2c, c[Pro-His-DPhe-Arg-Trp-Asn-DPro]] (cyclo(PH[dF]RWN[dP]))
decreased agonist potency at mMC1R relative to MDE5-149-2c [1]: 143 fold | EC50 [4]: 510 nM | decreased agonist potency at mMC4R relative to MDE5-149-2c [2]: 121 fold | decreased agonist potency at mMC5R relative to MDE5-149-2c [3]: 37 fold

N=C(N)NCCC[C@@H]1NC(=O)[C@@H](Cc2ccccc2)NC(=O)[C@@H]2CCCN2C(=O)[C@H]2CCCN2C(=O)[C@H](CN)NC(=O)[C@H](Cc2c[nH]c3ccccc23)NC1=O [MDE6-12-1c, c[Pro-DPhe-Arg-Trp-Dap-DPro]] (cyclo(P[dF]RW[Dap][dP]))
mMC1R partial agonist, percent maximal NDP stimulation ([1]; PA, relative to maximal NDP-MSH response): PA, 75% | selectivity for the mMC1R over the other receptors ([1]; over mMC3R, mMC4R, mMC5R): > 500 fold | EC50 [1]: 110 nM | agonist activity/efficacy at mMC3R (in words) [4]: no observable activity; also recorded: did not possess agonist activity; also recorded: no agonist activity | mMC4R percent maximal stimulatory response at 100 μM [2]: 35% | agonist activity/efficacy at mMC4R (in words) [2]: stimulated a fraction of the maximal NDP-MSH response; also recorded: partially stimulated | agonist activity/efficacy at mMC5R (in words) [3]: no observable activity; also recorded: unable to stimulate; also recorded: no agonist activity
